# Laboratory results published in article PMC6556873, “Rapid Covalent-Probe Discovery by Electrophile-Fragment Screening” (Journal of the American Chemical Society, 2019).
# Read-outs that look alike come from different tables or passages of the source.
# What was measured:
# [1] = in vitro; parameters: species or system HB2, CCD841; settings: human, hek293 cells
# [2] = in vitro; parameters: species or system HB2, HEK293; settings: human, ccd841 cells
# [3] = molecular target: T1, NNMT (hNNMT) (Homo sapiens, UniProt P40261); parameters: Intact protein LC/MS covalent labelling, fragments in pools of five, 200 uM each, 4 °C; settings: 24 h, 4 °C, pool of five; 200 µM; covalent
# T1 construct: wild type, N-terminal His6 tag kept (no cleavage described), E. coli, construct 31248 Da
# T1 sequence (P40261 1-264): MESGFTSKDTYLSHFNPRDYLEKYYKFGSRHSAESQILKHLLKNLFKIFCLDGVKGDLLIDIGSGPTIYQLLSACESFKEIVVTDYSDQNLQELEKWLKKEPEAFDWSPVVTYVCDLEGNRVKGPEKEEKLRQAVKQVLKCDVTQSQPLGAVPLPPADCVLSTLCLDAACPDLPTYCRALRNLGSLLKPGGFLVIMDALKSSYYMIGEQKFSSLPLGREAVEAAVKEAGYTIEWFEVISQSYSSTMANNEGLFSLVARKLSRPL
# [4] = molecular target: T2, NUDT7 (Homo sapiens, UniProt P0C024); parameters: Intact protein LC/MS covalent labelling, fragments in pools of five, 200 uM each, 4 °C; settings: 24 h, 4 °C, pool of five; 200 µM; covalent
# T2 construct: residues 14-235, E. coli, pNIC28-Bsa4, N-terminal His6 tag removed by TEV, construct 26672 Da
# [5] = molecular target: T3, BSA (Bos taurus, UniProt P02769); parameters: Intact protein LC/MS covalent labelling, fragments in pools of five, 200 uM each, 4 °C; settings: 24 h, 4 °C, pool of five; 200 µM; covalent
# T3 construct: gene ALB
# [6] = molecular target: T4, PCAF (Homo sapiens, UniProt Q92831); parameters: Intact protein LC/MS covalent labelling, fragments in pools of five, 200 uM each, 4 °C; settings: 24 h, 4 °C, pool of five; 200 µM; covalent
# T4 construct: gene KAT2B
# [7] = molecular target: T5, OTUB2 (OTUB2A) (Homo sapiens, UniProt Q96DC9); parameters: Intact protein LC/MS covalent labelling, fragments in pools of five, 200 uM each, 4 °C; settings: 24 h, 4 °C, pool of five; 200 µM; covalent
# T5 construct: full length residues 1-234, E. coli BL21(DE3)-R3, His tag removed by TEV, construct 27312 Da
# T5 sequence (Q96DC9 1-234): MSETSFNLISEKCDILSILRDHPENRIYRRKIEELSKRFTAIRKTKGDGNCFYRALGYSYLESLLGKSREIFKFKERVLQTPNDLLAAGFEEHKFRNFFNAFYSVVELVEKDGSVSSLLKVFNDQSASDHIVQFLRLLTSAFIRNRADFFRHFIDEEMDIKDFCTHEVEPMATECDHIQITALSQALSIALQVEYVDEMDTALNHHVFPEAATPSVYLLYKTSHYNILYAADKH
# [8] = in vitro; parameters: species or system CCD841, HEK293; settings: human, hb2 cells, read-out: HB-2 Cells Viability (%)
# T3 sequence (P02769 whole entry, the tested form may be a part): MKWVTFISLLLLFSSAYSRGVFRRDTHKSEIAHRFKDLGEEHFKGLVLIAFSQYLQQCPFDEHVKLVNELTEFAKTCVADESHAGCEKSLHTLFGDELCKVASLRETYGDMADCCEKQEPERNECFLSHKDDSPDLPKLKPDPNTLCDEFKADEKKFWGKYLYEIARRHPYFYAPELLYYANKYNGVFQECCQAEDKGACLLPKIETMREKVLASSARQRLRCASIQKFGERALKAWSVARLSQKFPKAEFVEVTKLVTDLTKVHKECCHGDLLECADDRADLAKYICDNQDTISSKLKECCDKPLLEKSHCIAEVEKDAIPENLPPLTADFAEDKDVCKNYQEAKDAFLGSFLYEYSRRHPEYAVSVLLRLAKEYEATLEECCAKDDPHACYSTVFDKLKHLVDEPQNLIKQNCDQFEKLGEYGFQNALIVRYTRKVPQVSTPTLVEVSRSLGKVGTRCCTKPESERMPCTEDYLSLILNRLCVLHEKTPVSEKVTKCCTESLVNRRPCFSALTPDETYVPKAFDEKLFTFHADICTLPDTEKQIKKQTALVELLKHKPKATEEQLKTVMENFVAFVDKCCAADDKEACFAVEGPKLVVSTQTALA
# T4 sequence (Q92831 whole entry, the tested form may be a part): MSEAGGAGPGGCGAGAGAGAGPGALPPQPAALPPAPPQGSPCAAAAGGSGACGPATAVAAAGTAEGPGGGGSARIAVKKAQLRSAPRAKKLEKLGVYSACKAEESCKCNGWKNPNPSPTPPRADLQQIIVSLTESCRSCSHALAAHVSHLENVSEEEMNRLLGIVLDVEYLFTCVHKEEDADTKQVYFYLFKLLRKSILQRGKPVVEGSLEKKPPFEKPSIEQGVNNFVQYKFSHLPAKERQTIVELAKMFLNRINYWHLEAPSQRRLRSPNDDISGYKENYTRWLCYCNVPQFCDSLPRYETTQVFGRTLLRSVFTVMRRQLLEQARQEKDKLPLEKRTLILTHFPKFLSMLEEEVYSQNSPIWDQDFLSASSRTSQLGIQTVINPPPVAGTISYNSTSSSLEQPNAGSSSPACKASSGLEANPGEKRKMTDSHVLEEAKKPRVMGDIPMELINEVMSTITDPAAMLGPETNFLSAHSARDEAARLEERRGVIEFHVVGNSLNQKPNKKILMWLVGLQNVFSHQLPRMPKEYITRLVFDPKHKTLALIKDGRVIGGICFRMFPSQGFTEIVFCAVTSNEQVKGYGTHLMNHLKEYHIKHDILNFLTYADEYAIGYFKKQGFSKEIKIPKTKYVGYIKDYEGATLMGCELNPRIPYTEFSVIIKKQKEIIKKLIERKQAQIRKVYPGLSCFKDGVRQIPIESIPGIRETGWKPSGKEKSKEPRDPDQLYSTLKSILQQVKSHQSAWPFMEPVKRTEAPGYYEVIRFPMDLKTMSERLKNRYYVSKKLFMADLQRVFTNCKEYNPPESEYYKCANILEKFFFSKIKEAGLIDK
# T2 sequence (P0C024 14-235): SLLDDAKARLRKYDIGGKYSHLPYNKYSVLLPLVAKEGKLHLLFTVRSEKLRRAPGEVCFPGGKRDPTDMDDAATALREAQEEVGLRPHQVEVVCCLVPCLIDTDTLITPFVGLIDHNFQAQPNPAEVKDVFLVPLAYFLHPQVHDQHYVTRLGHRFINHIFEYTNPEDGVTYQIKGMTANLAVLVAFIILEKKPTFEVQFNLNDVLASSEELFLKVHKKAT
SMILES,"viability at 48 h, 10 µM [1]","viability at 48 h, 10 µM [2]",NNMT [3],NUDT7 [4],BSA [5],PCAF [6],OTUB2 [7],"viability at 48 h, 10 µM [8]"
O=C(CCl)NC(=O)NCc1cccs1 [PCM-0102753],55.8%,71.1%,0.55,0,0,0,0.23,61.5%
C=CC(=O)NC1CCCN(c2cc(C)nn2C)C1=O (stereo not shown) [PCM-0102991],94.5%,113%,0,0,0,0,0,98.2%
NC(=O)c1ccsc1NC(=O)CCl [PCM-0102314],33.7%,74.4%,0.32,0.18,0,0,0,58.5%
CC(NC(=O)CCl)c1ccccc1 (stereo not shown) [PCM-0102128],84.3%,85.5%,0,0.13,0,0,0.42,84.4%
Cc1ccc(S(N)(=O)=O)cc1NC(=O)CCl [PCM-0102744],19.7%,61.4%,0.17,0,0,0,0.1,54.4%
O=C(CCl)Nc1ccccc1 [PCM-0102658],56.1%,67%,0,0,0,0,0,72%
O=C(CCl)NC(=O)C1COc2ccccc2O1 (stereo not shown) [PCM-0102462],99.1%,102%,0,0,0,0,0,103%
CCc1sc(C(=O)NNC(=O)CCl)cc1C [PCM-0103009],73.2%,68.3%,0,0,0,0,1,70.4%
O=C(CCl)Nc1cccc(Cl)c1Cl [PCM-0102797],40.9%,72.2%,0,0.15,0,0,0,44.2%
Cc1ccc(CNC(=O)CCl)cc1 [PCM-0102660],93.6%,80.3%,0,0,0,0,0.63,87.4%
C=CC(=O)NCC1(O)CCCC(C(F)(F)F)C1 (stereo not shown) [PCM-0102720],106%,107%,0,0,0,0,0.08,93.2%
O=C(CCl)NC(=O)c1ccccc1 [PCM-0102414],91.5%,101%,0,0,0,0,0,102%
CC1(C)CCCN1C(=O)CCl [PCM-0103060],74.5%,92.4%,0,0,0,0,0,104%
O=C(CCl)NC(=O)CN1CCCC1=O [PCM-0102824],110%,111%,0,0,0,0,0,105%
CN(C)C(=O)CNC(=O)CCl [PCM-0102365],95.6%,100%,0,0,0,0,0,103%
C=CC(=O)N1CC2(CCCC2)c2cc3c(cc2C1C)OCCO3 (stereo not shown) [PCM-0102560],116%,110%,0.19,0,0,0,0,102%
O=C(CCl)N1CCCCCC1 [PCM-0102751],73.7%,85.6%,0,0,0,0,0,99.5%
Cc1ccccc1CC(=O)NNC(=O)CCl [PCM-0102829],104%,83.9%,0,0,0,0,0.3,90.9%
O=C(CCl)NNC(=O)C1CC1 [PCM-0102776],90.2%,88.4%,0,0,0,0,0.23,93.1%
O=C(CCl)NC1c2ccccc2-c2ccccc21 [PCM-0102802],58.9%,82.7%,0,0.19,0,0,0.16,61.8%
